Measurements: patent publication US4447626A, “ML-236B Derivatives” (Sankyo Company Limited, priority 1981, dated 1984)

Tested on: cholesterol biosynthesis
Experiment: Inhibition of cholesterol biosynthesis (method of J. Biol. Chem. 234, 2835 (1959))
Type: biochemical
Details: method of Journal of Biological Chemistry, 234, 2835 (1959)
Source text: The inhibitory activities of certain of the compounds of the invention, in terms of the concentration in μg/ml required to inhibit cholesterol biosynthesis by 50% [measured by the method described in the Journal of Biological Chemistry, 234, 2835 (1959)], are as follows: […]

SMILES | concentration required to inhibit cholesterol biosynthesis by 50%
CC[C@H](C)C(=O)O[C@H]1CC=CC2=CC(OC)[C@H](C)[C@H](CC[C@@H]3C[C@@H](O)CC(=O)O3)[C@H]21 (stereo partly drawn) [6-methoxy-IsoML-236B lactone] | 0.015 µg/mL
CC[C@H](C)C(=O)O[C@H]1CC=CC2=CC(OC)[C@H](C)[C@H](CC[C@@H](O)C[C@@H](O)CC(=O)O)[C@H]21 (stereo partly drawn) [Sodium 6-methoxy-IsoML-236B carboxylate, sodium 6-methoxy-IsoML-236B carboxylate] | 0.0044 µg/mL
CC[C@H](C)C(=O)O[C@H]1CCC=C2C=C[C@H](C)[C@H](CC[C@@H]3C[C@@H](O)CC(=O)O3)[C@H]21 [ML-236B lactone, reference compound] | 0.010 µg/mL
